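Grown in 96-well plates, cells were treated for 48 hours with each compound at five concentrations. Insufficient inhibition: endpoint recorded as highest concentration tested. The concentration for full growth arrest is given as TGI.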
How the values were obtained:
Assay in all cases: NCI anticancer screen, dose series, 48 h
786-0 renal = tested on: 786-0 renal
A498 renal = tested on: A498 renal
A549 NSCLC = tested on: A549 NSCLC
ACHN renal = tested on: ACHN renal
BT-549 breast = tested on: BT-549 breast
CAKI-1 renal = tested on: CAKI-1 renal
CCRF-CEM leukemia = tested on: CCRF-CEM leukemia
COLO 205 colon = tested on: COLO 205 colon
DU-145 prostate = tested on: DU-145 prostate
EKVX NSCLC = tested on: EKVX NSCLC
HCC-2998 colon = tested on: HCC-2998 colon
HCT-116 colon = tested on: HCT-116 colon
HCT-15 colon = tested on: HCT-15 colon
HL-60(TB) leukemia = tested on: HL-60(TB) leukemia
HOP-62 NSCLC = tested on: HOP-62 NSCLC
HOP-92 NSCLC = tested on: HOP-92 NSCLC
HS 578T breast = tested on: HS 578T breast
HT29 colon = tested on: HT29 colon
IGROV1 ovarian = tested on: IGROV1 ovarian
K-562 leukemia = tested on: K-562 leukemia
KM12 colon = tested on: KM12 colon
LOX IMVI melanoma = tested on: LOX IMVI melanoma
M14 melanoma = tested on: M14 melanoma
MALME-3M melanoma = tested on: MALME-3M melanoma
MCF7 breast = tested on: MCF7 breast
MDA-MB-231 breast = tested on: MDA-MB-231 breast
MDA-MB-435 = tested on: MDA-MB-435
MDA-N = tested on: MDA-N
MOLT-4 leukemia = tested on: MOLT-4 leukemia
NCI-H226 lung = tested on: NCI-H226 lung
NCI-H23 lung = tested on: NCI-H23 lung
NCI-H460 lung = tested on: NCI-H460 lung
NCI-H522 lung = tested on: NCI-H522 lung
NCI/ADR-RES ovarian = tested on: NCI/ADR-RES ovarian
OVCAR-3 ovarian = tested on: OVCAR-3 ovarian
OVCAR-4 ovarian = tested on: OVCAR-4 ovarian
OVCAR-5 ovarian = tested on: OVCAR-5 ovarian
OVCAR-8 ovarian = tested on: OVCAR-8 ovarian
PC-3 prostate = tested on: PC-3 prostate
RPMI-8226 leukemia = tested on: RPMI-8226 leukemia
RXF 393 renal = tested on: RXF 393 renal
SF-268 CNS = tested on: SF-268 CNS
SF-295 CNS = tested on: SF-295 CNS
SF-539 CNS = tested on: SF-539 CNS
SK-MEL-2 melanoma = tested on: SK-MEL-2 melanoma
SK-MEL-28 melanoma = tested on: SK-MEL-28 melanoma
SK-MEL-5 melanoma = tested on: SK-MEL-5 melanoma
SK-OV-3 ovarian = tested on: SK-OV-3 ovarian
SN12C renal = tested on: SN12C renal
SNB-19 CNS = tested on: SNB-19 CNS
SNB-75 CNS = tested on: SNB-75 CNS
SR leukemia = tested on: SR leukemia
SW-620 colon = tested on: SW-620 colon
T-47D breast = tested on: T-47D breast
TK-10 renal = tested on: TK-10 renal
U251 CNS = tested on: U251 CNS
UACC-257 melanoma = tested on: UACC-257 melanoma
UACC-62 melanoma = tested on: UACC-62 melanoma
UO-31 renal = tested on: UO-31 renal

Molecule `Cc1c(F)c(N)c2c(=O)cc(-c3ccc(N)c(F)c3)oc2c1F` has a TGI (786-0 renal) of 34.9 µM, a TGI (A498 renal) of 8.74 µM and a TGI (A549 NSCLC) of 59 µM. It also gave a TGI (ACHN renal) of 50.4 µM, a TGI (BT-549 breast) of 36.8 µM and a TGI (CAKI-1 renal) of 0.114 µM. For the same molecule, the TGI (CCRF-CEM leukemia) was greater than 100 µM, the TGI (COLO 205 colon) was greater than 100 µM and the TGI (DU-145 prostate) was greater than 100 µM. The TGI (EKVX NSCLC) was 54.7 µM, the TGI (HCC-2998 colon) was greater than 100 µM and the TGI (HCT-116 colon) was 38.2 µM. It also gave a TGI (HCT-15 colon) greater than 100 µM, a TGI (HL-60(TB) leukemia) greater than 100 µM and a TGI (HOP-62 NSCLC) of 46.8 µM. It also gave a TGI (HOP-92 NSCLC) of 63.8 µM, a TGI (HS 578T breast) greater than 95 µM and a TGI (HT29 colon) of 98.6 µM. For the same molecule, the TGI (IGROV1 ovarian) was 25.2 µM, the TGI (K-562 leukemia) was greater than 92.9 µM and the TGI (KM12 colon) was greater than 100 µM. It also gave a TGI (LOX IMVI melanoma) of 55.8 µM, a TGI (M14 melanoma) greater than 100 µM and a TGI (MALME-3M melanoma) greater than 91.4 µM. The TGI (MCF7 breast) was 4.39 µM, the TGI (MDA-MB-231 breast) was 46.3 µM and the TGI (MDA-MB-435) was greater than 100 µM. For the same molecule, the TGI (MDA-N) was greater than 89 µM, the TGI (MOLT-4 leukemia) was greater than 100 µM and the TGI (NCI-H226 lung) was 36 µM. It also gave a TGI (NCI-H23 lung) of 68.4 µM, a TGI (NCI-H460 lung) of 24.2 µM and a TGI (NCI-H522 lung) of 30.3 µM. For the same molecule, the TGI (NCI/ADR-RES ovarian) was 42.4 µM, the TGI (OVCAR-3 ovarian) was greater than 100 µM and the TGI (OVCAR-4 ovarian) was 48.8 µM. For the same molecule, the TGI (OVCAR-5 ovarian) was 15.8 µM, the TGI (OVCAR-8 ovarian) was 58.7 µM and the TGI (PC-3 prostate) was 45.6 µM. For the same molecule, the TGI (RPMI-8226 leukemia) was greater than 96.1 µM, the TGI (RXF 393 renal) was 41.6 µM and the TGI (SF-268 CNS) was 76.7 µM. For the same molecule, the TGI (SF-295 CNS) was 43.2 µM, the TGI (SF-539 CNS) was 32.3 µM and the TGI (SK-MEL-2 melanoma) was 81.2 µM. For the same molecule, the TGI (SK-MEL-28 melanoma) was greater than 95.2 µM, the TGI (SK-MEL-5 melanoma) was 67 µM and the TGI (SK-OV-3 ovarian) was 38.1 µM. The TGI (SN12C renal) was 56.7 µM, the TGI (SNB-19 CNS) was 46.4 µM and the TGI (SNB-75 CNS) was 56.2 µM. For the same molecule, the TGI (SR leukemia) was 82.8 µM, the TGI (SW-620 colon) was greater than 100 µM and the TGI (T-47D breast) was 16 µM. It also gave a TGI (TK-10 renal) of 6.72 µM, a TGI (U251 CNS) of 33.1 µM and a TGI (UACC-257 melanoma) greater than 100 µM. The TGI (UACC-62 melanoma) was 31 µM and the TGI (UO-31 renal) was 60.1 µM.

`N#Cc1ccc(C(=O)/C=C/c2ccc(O)c(O)c2)cc1` showed a TGI (786-0 renal) greater than 52.9 µM, a TGI (A498 renal) of 31.9 µM and a TGI (A549 NSCLC) of 31.8 µM. For the same molecule, the TGI (ACHN renal) was 31.8 µM, the TGI (BT-549 breast) was 25.3 µM and the TGI (CAKI-1 renal) was 29.6 µM. It also gave a TGI (CCRF-CEM leukemia) of 14.3 µM, a TGI (COLO 205 colon) of 30.5 µM and a TGI (DU-145 prostate) of 30 µM. The TGI (EKVX NSCLC) was 31.8 µM, the TGI (HCC-2998 colon) was 28.2 µM and the TGI (HCT-116 colon) was 22.8 µM. The TGI (HCT-15 colon) was 30.1 µM, the TGI (HL-60(TB) leukemia) was 19.8 µM and the TGI (HOP-62 NSCLC) was 32.4 µM. The TGI (HOP-92 NSCLC) was 29.6 µM, the TGI (HS 578T breast) was greater than 76.6 µM and the TGI (HT29 colon) was 31.2 µM. It also gave a TGI (IGROV1 ovarian) of 27 µM, a TGI (K-562 leukemia) of 34 µM and a TGI (KM12 colon) of 30.5 µM. The TGI (LOX IMVI melanoma) was 26.3 µM, the TGI (M14 melanoma) was 32.8 µM and the TGI (MALME-3M melanoma) was 29.3 µM. For the same molecule, the TGI (MCF7 breast) was 26 µM, the TGI (MDA-MB-231 breast) was 30.7 µM and the TGI (MDA-MB-435) was 28.5 µM. The TGI (MDA-N) was 30.7 µM, the TGI (MOLT-4 leukemia) was 37.6 µM and the TGI (NCI-H226 lung) was 62.7 µM. The TGI (NCI-H23 lung) was 33 µM, the TGI (NCI-H460 lung) was 29.8 µM and the TGI (NCI-H522 lung) was 7.54 µM. It also gave a TGI (NCI/ADR-RES ovarian) greater than 65.8 µM, a TGI (OVCAR-3 ovarian) of 29.3 µM and a TGI (OVCAR-4 ovarian) of 25.7 µM. For the same molecule, the TGI (OVCAR-5 ovarian) was 33.5 µM, the TGI (OVCAR-8 ovarian) was greater than 54.8 µM and the TGI (PC-3 prostate) was 30 µM. For the same molecule, the TGI (RPMI-8226 leukemia) was 25.2 µM, the TGI (RXF 393 renal) was 32.4 µM and the TGI (SF-268 CNS) was 31.1 µM. It also gave a TGI (SF-295 CNS) of 33.9 µM, a TGI (SF-539 CNS) of 29.7 µM and a TGI (SK-MEL-2 melanoma) of 33.8 µM. The TGI (SK-MEL-28 melanoma) was 29 µM, the TGI (SK-MEL-5 melanoma) was 28.5 µM and the TGI (SK-OV-3 ovarian) was greater than 57.7 µM. For the same molecule, the TGI (SN12C renal) was 28.9 µM, the TGI (SNB-19 CNS) was 29.3 µM and the TGI (SNB-75 CNS) was 36.6 µM. For the same molecule, the TGI (SR leukemia) was 6.27 µM, the TGI (SW-620 colon) was 26.2 µM and the TGI (T-47D breast) was 31.2 µM. The TGI (TK-10 renal) was 27.6 µM, the TGI (U251 CNS) was 26.2 µM and the TGI (UACC-257 melanoma) was 30 µM. The TGI (UACC-62 melanoma) was 32.5 µM and the TGI (UO-31 renal) was 25.1 µM.

Source: PubChem BioAssay (NCI)
